Assay type in all cases: cell-based
In experiment [1] the test system is TNFα release from THP-1 cells. The experiment in a line: Primary screen (Example 1a): LPS-stimulated TNFα release from THP-1 cells, HTRF. The note with it: Homo sapiens, 100 ng/mL LPS, 3 h, normalised to 50 μM Batimastat, read-out: Primary Screen XC50 TNFα. The method, then: (§1) Two separate screens to identify novel small molecule inhibitors of iRhom2/ADAM17 activity were developed. […] Therefore, the primary screen for small molecule inhibitors of iRhom2/ADAM17 was a screen for inhibitors that blocked the release of TNFα from LPS-stimulated THP-1 human myeloid cells, a process that depends on iRhom2 and ADAM17. Since the release of TNFα from THP-1 cells can be blocked at many stages of the LPS/TLR4/iRhom2/ADAM17 pathway, a secondary screen was performed for another iRhom2/ADAM17 selective substrate, Kit-ligand 2 (KL-2) (Maretzky T et al. (July 2013), “iRhom2 controls the substrate selectivity of stimulated ADAM17-dependent ectodomain shedding”, PNAS 110(28): 11433-11438) in a different human cell type, human embryonic kidney cells (HEK 293).
THP-1 cells were plated in 384 or 1,536 wells and transferred on the ultra-high throughput screening (uHTS) platform Mark III, and TNFα shedding was initiated by LPS stimulation of THP-1 cells. The extent of released TNFα was detected with the corresponding HTRF antibodies labeled with europium cryptate (donor) and d2 (acceptor). The HTRF signal was generated by proximity of europium cryptate and d2. All detection reagents were purchased from Cisbio. TNFα detection was performed according to the manufacturer's protocol (Product Insert for Cisbio TNFα (h) Kit Part #62HTNFAPEG & 62HTNFAPEH;
7.5 nL compound and controls in DMSO [10 μM in assay; 0.25% DMSO in 3 [μL Assay] were dissolved in 2 μL cell suspension [2.4E6/mL; 4800 cells/well; culture w/o PenStrep], pre-incubated at 37° C., 5% CO2, for 15 min with 1 μL LPS [100 ng/mL in 3 μL assay]. The cells were incubated at 37° C., 5% CO2, for 3 h with 2 μL of the HTRF-mix [1:300 f.c.]. After an incubation at room temperature for 2 h or longer, the HTRF readout was performed. Then data evaluation for normalization against the 50 μM Batimastat control (=100% […]) was applied. As an additional control, 300 nM Batimastat was used to monitor performance of cells and assay sensitivity over time.
In general terms: In TR-FRET formats the signal depends on donor and acceptor labels being close together.

Experiment [2] has as its system KL2 release from HEK-293 cells. Briefly: Secondary screen (Example 3a): PMA-stimulated KL2 release from HEK-293 cells, AP readout. The conditions noted are these: Homo sapiens, HEK293, HEK-293 cells expressing KL2-AP, PMA 500 ng/mL, 2 h, read-out: Secondary Screen XC50 KL2. As to the method:
as §1
(§2) First, expression plasmids for alkaline phosphatase (AP)-fused KL2 and TGFα were designed and generated through gene synthesis followed by subcloning into the pcDNA3.1(+)/Hygro expression vector. […] Subsequently, DNA amplifications were performed to obtain sufficient amounts of the expression vectors. The quality of DNA and gene sequences were confirmed through restriction digest and Sanger sequencing. In parallel, cell culture of THP-1 and HEK-293 cells was initiated. Master and working cell banks were prepared. Both cell lines were scaled up and transfected with the respective constructs by electroporation. During cell culturing, cell density and viability were monitored to ensure optimal conditions for the transfections. After PMA stimulation, AP-coupled KL2 or TGFα were detected by measurement of AP activity in the supernatant. […] In contrast, THP-1 cells turned out to be not a suitable transfection host resulting in a loss of cell viability after transfection. The decision was made to proceed with HEK-293 for both selectivity assays and to establish polyclonal cell lines stably expressing AP-coupled KL2 or TGFα.
(§3) After electroporation, cells were further cultured in presence of selection antibiotics, hygromycin B, to generate stably transfected polyclonal cell pools. For both assays, KL2 and TGFα shedding, the respective selected pool turned out to be suitable. Final assay conditions were determined for the selected pools. For all experiments, batimastat (30 μM) was used as positive control for full inhibition of KL2 or TGFα shedding.
(§4) 60 μL of cells (40,000/well) were added to a sterile 384-well plate. After incubation overnight at 37° C. (5% CO2), 50 μL medium were removed and 20 μL of prediluted compounds were added to the cells. After incubation for 15 min, 20 μL of PMA (500 ng/mL final conc.) were added. The cells were incubated for 2 h at 37° C. (5% CO2). Then, 20 μL of the supernatant was transferred to a fresh plate and 20 μL of pNPP (5 mM final conc.) was added. AP reaction was performed for 1 h at RT. The reaction was stopped by addition of 20 μL of NaOH (1 M final conc.) and the absorbance of pNP was measured at 405 nm.

In experiment [3] the test system is TGFα release from HEK-293 cells. The experiment in a line: Counter screen (Example 4a): PMA-stimulated TGFα release from HEK-293 cells, AP readout. The note with it: Homo sapiens, HEK293, HEK-293 cells expressing TGFα-AP, PMA 100 ng/mL, 2 h, read-out: Counter Screen XC50 TGFα. As to the method:
A tertiary counterscreen was also performed to monitor the release of TGFα, which is a substrate of iRhom1/ADAM17 and iRhom2/ADAM17, so its release should not be blocked by an iRhom2-selective inhibitor (Maretzky T et al. (July 2013), “iRhom2 controls the substrate selectivity of stimulated ADAM17-dependent ectodomain shedding”, PNAS 110(28): 11433-11438; and Li X et al. (May 2015), “iRhoms 1 and 2 are essential upstream regulators of ADAM17-dependent EGFR signaling”, PNAS 112(19): 6080-6085).
as §2, §3
as §4, with “of cells (20,000/well) were added” for “of cells (40,000/well) were added”, “of PMA (100 ng/mL final” for “of PMA (500 ng/mL final”, “was added. The AP reaction” for “was added. AP reaction”
(In general: The purpose of a counterscreen is to sort out artefacts and off-target activity.)

In the case of `O=C(c1cccs1)N1CCC(Cc2ccccc2)CC1` [Compound 2], the results for the IC50 in experiment [1], in experiment [2] and in experiment [3] were under 0.802 µM, over 128 µM and over 128 µM, respectively.
In the case of `CCC(C)NC(=O)c1cc(C(=O)c2ccccc2C)c[nH]1` (stereo not drawn) [Compound 34], the IC50 in experiment [1] is 10.2 µM; in experiment [2], over 128 µM; in experiment [3], over 128 µM.
For the molecule `O=C(c1c[nH]c(-c2nnc3n2CCCCC3)c1)c1cc(F)ccc1O` [Compound 35], the IC50 in experiment [1] was 28.2 µM; in experiment [2] it was over 128 µM; in experiment [3], over 128 µM.
With `CCC1CN(C(=O)c2ccc3c(c2)CCO3)CCC(=O)N1Cc1ccccc1` (stereo not drawn) [Compound 16], the IC50 was 15.4 µM in experiment [1], over 128 µM in experiment [2] and over 128 µM in experiment [3].
On to `CCC(Cn1cnc(-c2ccccc2)c1-c1ccncc1)N1CCOCC1` (stereo not drawn) [Compound 18], for which the IC50 in experiment [1] was 21.8 µM; in experiment [2] it was over 128 µM; in experiment [3], over 128 µM.
Turning to `Cc1ccc(-n2ncc3c(NC4CCCCC4)ncnc32)c(C)c1` [Compound 29], the IC50 in experiment [1] is under 0.802 µM; in experiment [2], over 128 µM; in experiment [3], over 128 µM.
Consider `COc1ccc(-c2cnc3sc(NCCCO)nn23)cc1OC` [Compound 32], for which the values for the IC50 in experiment [1], in experiment [2] and in experiment [3] were 68.7 µM, 66.5 µM and over 128 µM, respectively.
Taken in the same sequence, the figures for `OC(Cc1ccccc1)Cn1cnc(-c2ccccc2)c1-c1cccnc1` (stereo not drawn) [Compound 38] were 108 µM, over 128 µM and over 128 µM.
The matching figures for `Cc1ccccc1C(=O)N1CCN(Cc2ccccc2)CC1` [Compound 3]: 12.3 µM, over 128 µM and over 128 µM.
As for `Cc1ccccc1C(=O)N1CCN(c2ccc(NC(=O)c3cccnc3)cc2Cl)CC1` [Compound 14], the IC50 in experiment [1] was under 0.802 µM; in experiment [2], 12.8 µM; in experiment [3], over 128 µM.
Consider `COCC(=O)N1CCCc2ccc(NC(=O)Nc3ccc(F)cc3)cc21` [Compound 23], for which the IC50 is 3.7 µM in experiment [1], over 128 µM in experiment [2] and over 128 µM in experiment [3].
For the molecule `COc1ccccc1-c1c(-c2ccccc2C)ncn1C1CC(C)(C)N(C)C(C)(C)C1` [Compound 39], the IC50 is 41.5 µM in experiment [1], over 128 µM in experiment [2] and over 128 µM in experiment [3].
Regarding `Cc1nc[nH]c1-c1nccn1-c1ccc2c(c1)CCC2` [Compound 42], the IC50 in experiment [1] is 31 µM; in experiment [2], over 128 µM; in experiment [3] it was over 128 µM.
As to `CC(C)c1nccc(-c2c(-c3ccccc3)ncn2CCc2c[nH]cn2)n1` [Compound 37], the IC50 in experiment [1] was 4.99 µM; in experiment [2] it was over 128 µM; in experiment [3], over 128 µM.
Consider `Cc1ccccc1C(=O)N1CCN(Cc2cccc(Cl)c2)CC1` [Compound 5], for which the IC50 in experiment [1] is 1.4 µM; in experiment [2], over 128 µM; in experiment [3] it was over 128 µM.
For `O=C(c1c(F)cccc1F)N1CCN(Cc2ccc(Cl)s2)CC1` [Compound 7], the IC50 in experiment [1] was 14.1 µM; in experiment [2], over 128 µM; in experiment [3], over 128 µM.
`c1ccc(-c2ncn(CCCc3cccnc3)c2-c2ccncc2)cc1` [Compound 20]: the results for the IC50 in experiment [1], in experiment [2] and in experiment [3] were under 0.802 µM, over 128 µM and over 128 µM, respectively.
Turning to `COc1cccc(OC)c1C(=O)N1CCN(Cc2cccc(Br)c2)CC1` [Compound 11], the results for the IC50 in experiment [1], in experiment [2] and in experiment [3] were 24.7 µM, over 128 µM and over 128 µM, respectively.
Regarding `COc1cccc(OC)c1C(=O)N1CCN(Cc2cccc3ccccc23)CC1` [Compound 10], the IC50 in experiment [1] is 22.6 µM; in experiment [2] it was 67.7 µM; in experiment [3] it was over 128 µM.
For the molecule `CNc1ccc2ncc(-c3cccc(O)c3)n2n1` [Compound 22], the results for the IC50 in experiment [1], in experiment [2] and in experiment [3] were 27.8 µM, 8.8 µM and over 128 µM, respectively.
Consider `Cc1ccccc1C(=O)N1CCN(c2ccc(NC(=O)c3ccco3)cc2Cl)CC1` [Compound 13], for which the IC50 in experiment [1] was 3.5 µM; in experiment [2] it was 18 µM; in experiment [3] it was over 128 µM.
Take `CCC1CN(C(=O)c2ccc3cc[nH]c3c2)CCC(=O)N1Cc1ccccc1` (stereo not drawn) [Compound 15]: the IC50 in experiment [1] was under 0.802 µM; in experiment [2], over 128 µM; in experiment [3], over 128 µM.
On to `CCCn1c(=O)nc(N)c2c(-c3ccc(OC)cc3)csc21` [Compound 28], for which the IC50 in experiment [1] is 1.7 µM; in experiment [2], over 128 µM; in experiment [3] it was over 128 µM.
Turning to `O=C(CCn1sc2ccccc2c1=O)Nc1ccc2cc[nH]c2c1` [Compound 33], the values for the IC50 in experiment [1], in experiment [2] and in experiment [3] were 5.1 µM, 6 µM and 24.1 µM, respectively.
The matching figures for `O=C(c1ccccc1F)N1CCN(Cc2cccc(Br)c2)CC1` [Compound 6]: 12.4 µM, over 128 µM and over 128 µM.
In the case of `O=C(NN1CCN(Cc2ccccc2)CC1)C12CC3CC(CC(C3)C1)C2` [Compound 12], the IC50 is 8.9 µM in experiment [1], over 128 µM in experiment [2] and over 128 µM in experiment [3].
In the case of `C/C(=C\c1c(C)[nH]c2ccccc12)[N+](=O)[O-]` [Compound 30], the IC50 in experiment [1] is 24.3 µM; in experiment [2], 12.1 µM; in experiment [3], over 128 µM.
As for `O=C(c1c(Cl)cccc1Cl)N1CCN(Cc2ccc3c(c2)OCO3)CC1` [Compound 4], the IC50 in experiment [1] is 30.8 µM; in experiment [2], over 128 µM; in experiment [3] it was over 128 µM.
On to `Cc1ccn(CCCn2cnc(-c3ccccc3)c2-c2ccncc2)n1` [Compound 19], for which the IC50 in experiment [1] was 1.2 µM; in experiment [2], over 128 µM; in experiment [3], over 128 µM.
`Cc1ccc(F)c(C(=O)N2CCc3nnc(CCc4ccccc4)n3CC2)c1F` [Compound 17]: the IC50 is 15.2 µM in experiment [1], over 128 µM in experiment [2] and over 128 µM in experiment [3].

The values above are taken from patent publication US20240390355A1, “IRHOM2 INHIBITORS AND USES THEREOF” (NEW YORK SOCIETY FOR THE RELIEF OF THE RUPTURED AND …, priority 2021, published 2024).
